In patent US6319951A, “Use of 3-amino-4-hydroxybenzoic acid for the treatment of retroviral infections” (priority 1996, dated 2001):
Where “and” joins values, the source holds several entries; their conditions need not be identical. Identical values can stand only once.

Experiments:
Candida albicans = test: antimicrobial activity, fungi, Candida albicans
HIV [1] = format: in vivo
HIV [2] = test: T-cell counts of patients JE001-JE0015, once daily dosing (Example 5); format: in vivo
Protocol: These were made on patients JE001-JE0015 who received 200 mg of 3-amino-4-hydroxybenzoic acid orally only once per day for two weeks and whose T-cell counts were analysed after only 6 weeks.
Continuous study of viral load by quantitative PCR when available will show the optimum dose and duration of administration of 3-amino-4-hydroxybenzoic acid.
An explanation is that the CD4 cells which carry HIV die after 3-amino-4-hydroxybenzoic acid kills the virus in them. Later as the precursor cells form other CD4 s without HIV to destroy them, the total CD4 count will be found even higher than before treatment.

human lymphocytes = test: adverse effect on human lymphocytes in HIV culture; format: cell-based; conditions: at minimum concentration of 0.5 mg/l
HIV [3] = test: antimicrobial activity, HIV
HIV [4] = test: electron microscopy of patient blood (Example 6); format: in vivo; conditions: two patients, before treatment and 28 days after
Text: Blood samples were taken for electron microscopy and HIV culture before and after treatment of two patients.

hyaluronidase = conditions: acrosomal proteolytic enzyme of sperm; cited from earlier work
HIV [5] = test: T-cell observations after HIV/AIDS treatment (Example 4); format: in vivo
Protocol: Symptomatic and asymptomatic seropositive individuals were treated with 3-amino-4-hydroxybenzoic acid (200 mg tds orally) for two weeks. CD4 :CD8 ratios were taken before and three months after treatment. […] Based on its inherent ability to inactivate HIV in vitro it is probable that 3-amino-4-hydroxybenzoic acid suppresses or inactivates the HIV in affected individuals.
The individuals were taken randomly as they became available (3 male and 4 female). Their T-cell counts were taken before treatment and three months after treatment. They were given 3-amino-4-hydroxybenzoic acid as 200 mg tds orally and followed on daily basis as they took 3-amino-4-hydroxybenzoic acid for two weeks. Thereafter they were followed weekly for the first month after finishing the course of medicine and then monthly.

[6] = patient three (8), in 6 months of treatment
[7] = 200 mg tds orally, two weeks, before vs three months after treatment
[8] = per patient, 200 mg tds orally, two weeks, three months after treatment

## Nc1cc(C(=O)O)ccc1O [3-amino-4-hydroxybenzoic acid]
Candida albicans
  antimicrobial activity: established
HIV [1]; patient four (9), by 6 weeks of treatment
  hair: their thin silk hair had reverted to the normal Afro type
HIV [1]; [6]
  body weight after treatment: 53 kg
  haemoglobin after treatment: 14.9%
HIV [2]; 200 mg orally once per day, two weeks, analysed after 6 weeks, vs patient JC004 (200 mg tds)
  T-cell results: The results were poor
HIV [2]; earlier than three months
  CD4 count when counted earlier than three months: low figures even lower than before the start of treatment
Human lymphocytes
  adverse effect to the lymphocytes: without any adverse effect to the lymphocytes
HIV [3]
  antimicrobial activity: established
HIV [4]
  HIV particles by electron microscopy: HIV particles before treatment but not 28 days after treatment
hyaluronidase
  inactivation of hyaluronidase: inactivates an achrosomal proteolytic enzyme hyaluronidase
HIV [5]; 200 mg tds orally, two weeks
  immunological improvement: there is immunological improvement
HIV [5]; 200 mg tds orally, two weeks, 7 patients
  mean increase in CD4: 208
HIV [5]; [7]
  CD4:CD8 ratio change: rose
  CD8 change: decreased to varying levels in all of the individuals
HIV [5]; 200 mg tds orally, two weeks, three months after treatment, per patient
  Increase in CD4 after treatment: 531 CD4/mm^3 and 72 CD4/mm^3 and 160 CD4/mm^3 and 40 CD4/mm^3 and 184 CD4/mm^3 and 102 CD4/mm^3 and 465 CD4/mm^3
HIV [5]; per patient, baseline
  CD4/CD8 Ratio Before Treatment: 0.845 and 0.00 and 0.7 and 0.3 and 0.29 and 0.9
  CD4 Count Before Treatment: 561 CD4/mm3 and 50 CD4/mm3 and 650 CD4/mm3 and 460 CD4/mm3 and 300 CD4/mm3 and 1122 CD4/mm3 and 1014 CD4/mm3
HIV [5]; [8]
  CD4/CD8 Ratio After Treatment: 1.632 and 0.06 and 2.2 and 0.2 and 0.564 and 0.78 and 1.11
  CD4 Count After Treatment: 1092 CD4/mm3 and 112 CD4/mm3 and 810 CD4/mm3 and 500 CD4/mm3 and 484 CD4/mm3 and 1326 CD4/mm3 and 1479 CD4/mm3
